Data from paper PMC8652888, “Angiogenesis, Anti-Tumor, and Anti-Metastatic Activity of Novel α-Substituted Hetero-Aromatic Chalcone Hybrids as Inhibitors of Microtubule Polymerization” (Frontiers in Chemistry, 2021).

Tests used:
[1] = test system: MGC-803; test: Antiproliferative activity (SRB and CCK-8 assay); format: cell-based; details: Homo sapiens, triplicate, mean ± SD, read-out: IC50 ± SD, MGC-803
Source text: (§1) The synthesized compounds were first evaluated for their cytotoxic effect on MCF-7 (human breast adenocarcinoma), U937 (histiocytic lymphoma cancer), HepG2 (human liver cancer) cells, and MGC-803 (human gastric cancer) using the SRB and CCK-8 assay. As reference compounds CA-4 and colchicine were included.

[2] = test system: MCF-7, U937, HepG2 and MGC-803 cells; test: Antiproliferative activity, cancer cell panel (text summaries); format: cell-based, human; details: Homo sapiens; U937, MCF-7, HepG2, MGC-803; read-out: IC50 against four cancer cell lines
Experimental: as §1
(§2) The primary tumor cells were purchased from a professional biomedical company. First, the primary tumor cells were incubated in a cell culture incubator at 37°C and 5% CO2. After the cell fusion reached 85%–95%, subculture was performed, and the tumor cells obtained at this time were used for subsequent related experiments. The CCK-8 method was used to inhibit the proliferation of U937 tumor cells, and the SRB method was used to inhibit the proliferation of MCF7 and HepG2 tumor cells.
(§3) Cells were distributed into 96-well plates with a density of 3 × 10^3–4 × 10^3 cells per well and incubated for 24 h in a 5% CO2 incubator at 37°C, followed by treatment with study compounds at different concentrations at 37°C for 72 h. One hundred microliters of 10% (w/v) trichloroacetic acid was added to each well, fixed at 4°C for 30 min, and dried at 65°C. Then 100 μl of 0.4% SRB was added to each well and stained on a shaker for 20 min at room temperature. The excess dye solution was washed with newly prepared 1% glacial acetic acid and dried at 65°C. One hundred fifty microliters of 10 mM unbuffered Trisbase was added to each well of the plate and shaken for 5 min to dissolve the dye. The microplate reader measured the optical density (OD) at a wavelength of 560 nm.
(§4) The cells in the logarithmic growth phase were seeded in a 96-well plate at 8,000/well, and the drug-containing medium and cell suspension were added to the well. Three wells were added with the blank medium as the blank group. The 96-well plate was incubated for 72 h in a 37°C, 5% CO2 incubator. The 10 μl of CCK-8 dye solution was added to each well, and the incubation continued for 3–4 h.

[3] = test system: HepG2; test: Antiproliferative activity, SRB assay; format: cell-based, human; details: Homo sapiens, HepG2; 72 h, triplicate, mean ± SD; read-out: IC50 ± SD, HepG2
Experimental: as §1, §2, §3

[4] = test system: MCF-7; test: Antiproliferative activity, SRB assay; format: cell-based, human; details: Homo sapiens, MCF7, 72 h, 72 h, triplicate, mean ± SD; read-out: IC50 ± SD, MCF-7;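 note: proliferation of MCF7 cells quantified by sulforhodamine B staining, with optical density read at 560 nm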
[5] = test system: U937; test: Antiproliferative activity, CCK-8 assay; format: cell-based; details: Homo sapiens, U-937; 72 h, triplicate, mean ± SD; read-out: IC50 ± SD, U937
Experimental: as §1, §2, §4

SMILES	IC50 [1]	melting point	IC50 [2]	IC50 [3]	IC50 [4]	IC50 [5]
COC(=O)c1cccc2[nH]cc(/C=C/C(=O)c3cc(OC)c(OC)c(OC)c3)c12 [Compound 6d, methyl(E)-3[3-oxo-3-(3,4,5-trimethoxyphenyl)prop-1-en-1-yl]-1H-indole-4-carboxylate]	> 20 µM	221.7 to 223.6 °C	> 20 µM	> 20 µM	> 20 µM	> 20 µM
COC(=O)c1ccc2[nH]cc(/C=C/C(=O)c3cc(OC)c(OC)c(OC)c3)c2c1 [Compound 6e, methyl(E)-3[3-oxo-3-(3,4,5-trimethoxyphenyl)prop-1-en-1-yl]-1H-indole-5-carboxylate]	> 20 µM	218.7 to 220.3 °C	> 20 µM	> 20 µM	> 20 µM	> 20 µM
